Measured values: the Kinase Knowledgebase extract (Sharma et al. 2016)

The molecules below were run against EGFR (UniProt P00533).
Sequence of EGFR (P00533 whole entry, looked up): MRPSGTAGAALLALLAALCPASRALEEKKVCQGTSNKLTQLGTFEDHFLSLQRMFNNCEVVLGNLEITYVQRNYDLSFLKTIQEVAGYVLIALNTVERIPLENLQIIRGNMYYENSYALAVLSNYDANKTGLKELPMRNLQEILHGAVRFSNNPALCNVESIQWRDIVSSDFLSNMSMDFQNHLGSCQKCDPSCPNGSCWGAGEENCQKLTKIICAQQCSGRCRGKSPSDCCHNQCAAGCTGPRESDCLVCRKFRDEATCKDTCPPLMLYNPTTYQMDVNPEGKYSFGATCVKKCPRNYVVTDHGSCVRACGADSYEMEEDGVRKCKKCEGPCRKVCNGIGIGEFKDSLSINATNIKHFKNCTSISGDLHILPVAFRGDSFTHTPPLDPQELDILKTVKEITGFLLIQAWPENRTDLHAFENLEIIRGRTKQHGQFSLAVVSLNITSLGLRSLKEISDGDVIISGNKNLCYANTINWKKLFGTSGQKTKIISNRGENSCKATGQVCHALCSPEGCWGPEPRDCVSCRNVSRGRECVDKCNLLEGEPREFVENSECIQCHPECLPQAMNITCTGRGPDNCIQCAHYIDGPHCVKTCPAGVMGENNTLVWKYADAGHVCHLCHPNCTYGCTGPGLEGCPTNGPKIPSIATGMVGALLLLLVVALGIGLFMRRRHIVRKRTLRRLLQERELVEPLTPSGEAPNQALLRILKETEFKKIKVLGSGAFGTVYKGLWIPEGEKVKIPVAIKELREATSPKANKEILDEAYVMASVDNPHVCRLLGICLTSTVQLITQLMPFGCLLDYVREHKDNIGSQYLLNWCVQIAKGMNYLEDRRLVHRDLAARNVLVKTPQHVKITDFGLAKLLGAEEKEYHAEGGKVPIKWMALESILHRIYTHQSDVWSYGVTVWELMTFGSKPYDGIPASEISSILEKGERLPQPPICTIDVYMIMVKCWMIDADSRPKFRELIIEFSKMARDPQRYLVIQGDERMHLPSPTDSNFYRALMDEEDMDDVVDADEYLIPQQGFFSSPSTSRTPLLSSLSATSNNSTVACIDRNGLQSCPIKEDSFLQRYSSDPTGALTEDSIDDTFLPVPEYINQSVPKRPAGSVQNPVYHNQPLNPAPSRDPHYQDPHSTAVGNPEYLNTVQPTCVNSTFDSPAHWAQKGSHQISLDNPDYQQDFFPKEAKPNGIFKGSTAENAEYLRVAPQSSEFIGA

IC50, 0.003 to 25 µM:
COC(=O)c1cn2ncnc(Nc3ccc(C)c(OC)c3)c2c1C, COC(=O)c1cn2ncnc(Nc3cc(NS(C)(=O)=O)ccc3C)c2c1C, COC(=O)c1cn2ncnc(C3C(=O)Nc4ccc(S(=O)(=O)N5CCOCC5)cc43)c2c1C (centres undefined), Cc1c(C(=O)O)cn2ncnc(C3C(=O)Nc4ccccc43)c12 (centres undefined), Cc1c(NS(=O)(=O)CCCN2CCOCC2)cn2ncnc(C3C(=O)Nc4ccccc43)c12 (centres undefined), COc1c(NC(=O)OCc2ccccc2)cn2ncnc(C3C(=O)Nc4ccccc43)c12 (centres undefined), COC(=O)c1cc2c(Nc3ccc4c(cnn4Cc4ccccc4)c3)ncnn2c1, CCOC(=O)c1cn2ncnc(NCCOC)c2c1CC, CCCc1c(C(=O)NCCCN2CCCC2)cn2ncnc(Nc3ccc(C)c(O)c3)c12, Cc1ccn2ncnc(Nc3ccc(Br)cc3F)c12, CNS(=O)(=O)c1ccc2c(c1)C(c1ncnn3cc(C(=O)OC)c(C)c13)C(=O)N2 (centres undefined), CCc1c(C(=O)NCCN2CCOCC2)c(Br)n2ncnc(Nc3ccc4c(cnn4Cc4ccccc4)c3)c12, CCOC(=O)c1cn2ncnc(Nc3ccc(Cl)nc3)c2c1CC, Cc1c(OCCCn2nccn2)cn2ncnc(Nc3cccc(Br)c3)c12, COC(=O)c1cn2ncnc(Nc3ccc(C)c(C#N)c3)c2c1C, CCc1c(C(=O)O)cn2ncnc(Nc3ccc(OC)nc3)c12, CCOC(=O)c1cn2ncnc(Nc3ccc4c(cnn4Cc4ccccc4)c3)c2c1C(C)C, Cc1c(NC(=O)NCCN2CCOCC2)cn2ncnc(C3C(=O)Nc4ccccc43)c12 (centres undefined), COc1c(N)cn2ncnc(C3C(=O)Nc4ccccc43)c12 (centres undefined), Cc1ccc(Nc2ncnn3cc(C(=O)OCc4ccccc4)c(C)c23)cc1O, CCOC(=O)c1cn2ncnc(Nc3ccc(C)c(O)c3)c2c1OC, Cc1c(OCCCn2nccn2)cn2ncnc(Nc3ccc(Br)cc3F)c12, CCCCNS(=O)(=O)c1cccc(Nc2ncnn3cc(C(=O)OC)c(C)c23)c1, Cc1nc(C2C(=O)Nc3ccccc32)c2c(C)c(C(=O)NCCCN3CCOCC3)cn2n1 (centres undefined), CCOC(=O)c1cn2ncnc(Nc3ccccc3)c2c1CC, CCOC(=O)c1cn2ncnc(Nc3ccc(Br)cc3F)c2c1OC, COC(=O)c1cn2ncnc(Nc3ccc4c(c3)OCCO4)c2c1C, CC(=O)N1CCc2ccc(Nc3ncnn4cccc34)cc21, COC(=O)c1cn2ncnc(C3C(=O)Nc4ccc(C#N)cc43)c2c1C (centres undefined), COc1c(C(=O)NCCCN2CCOCC2)cn2ncnc(C3C(=O)Nc4ccccc43)c12 (centres undefined), Cc1ccc2c(Nc3ccc(Br)cc3F)ncnn12, Cc1ccc(Nc2nc(N(C)C)nn3cccc23)cc1O, Cc1c(OCCCn2cncn2)cn2ncnc(C3C(=O)Nc4ccccc43)c12 (centres undefined), Cc1ccc(Nc2ncnn3cc(C(=O)NCCCN4CCOCC4)c(C)c23)cc1O, COC(=O)c1cn2ncnc(Nc3ccc4cc[nH]c4c3)c2c1C, CCCCNc1ncnn2cc(C(=O)OCC)c(CC)c12, COC(=O)c1cn2ncnc(Nc3ccc(F)c(Cl)c3)c2c1CCCOCc1ccccc1, COC(=O)c1cn2ncnc(Nc3ccc(OC)nc3)c2c1C, CCc1c(NC(=O)OCc2ccccc2)cn2ncnc(Nc3ccc(OC)nc3)c12, COC(=O)c1cn2ncnc(Nc3cccc(CO)c3)c2c1C, Cc1ccc(Nc2ncnn3cc(C(=O)O)c(C)c23)cc1O, CCCc1ccc(Nc2ncnn3cc(C(=O)OC)c(C)c23)cc1O, CCOC(=O)c1cn2ncnc(Nc3ccc(C)c(O)c3)c2c1-c1ccccc1, CCc1c(C(=O)OC)cn2ncnc(Nc3ccc(OC)nc3)c12, COC(=O)c1cn2ncnc(Nc3ccc(C)c(O)c3)c2c1C, CCOC(=O)c1cn2ncnc(NCC3CCC(C#N)CC3)c2c1CC (centres undefined), Cc1cc2c(Nc3ccc(Br)cc3F)ncnn2c1, COC(=O)c1cn2ncnc(C3C(=O)N(C)c4ccccc43)c2c1C (centres undefined), Cc1ccc(Nc2ncnn3cc(C)c(C)c23)cc1O, COc1c(NCCCCN2CCOCC2)cn2ncnc(C3C(=O)Nc4ccccc43)c12 (centres undefined), CCCc1c(C(=O)OCC)cn2ncnc(Nc3ccc4c(cnn4Cc4ccccc4)c3)c12, COC(=O)c1cn2ncnc(Nc3ccc4c(=O)[nH][nH]c(=O)c4c3)c2c1C, Cc1c(NC(=O)NCCCCN2CCOCC2)cn2ncnc(C3C(=O)Nc4ccccc43)c12 (centres undefined), CCCc1c(C(=O)OCC)cn2ncnc(Nc3ccc(C)c(O)c3)c12, COC(=O)c1cn2ncnc(Nc3cccc(NC(C)=O)c3)c2c1C, COC(=O)CCc1cn2ncnc(C3C(=O)Nc4ccccc43)c2c1C (centres undefined), CCOC(=O)c1cn2ncnc(Nc3cccc4c3cnn4Cc3ccccc3)c2c1CC, CCOC(=O)c1cn2ncnc(N[C@H]3CC[C@H](O)CC3)c2c1CC, COC(=O)c1cn2ncnc(Nc3ccc4c(cnn4Cc4ccccc4)c3)c2c1C, CCOC(=O)c1cn2ncnc(Nc3ccc(C)c(O)c3)c2c1C(=O)OCC, Cc1cc2c(Nc3ccc(C)c(O)c3)ncnn2c1, COC(=O)c1cn2ncnc(Nc3ccc(C(C)C)c(O)c3)c2c1C, COC(=O)c1cn2ncnc(N(C)c3ccc(C)c(O)c3)c2c1C, COC(=O)c1cn2ncnc(C3C(=O)Nc4cc(S(C)(=O)=O)ccc43)c2c1C (centres undefined), CCOC(=O)c1cn2ncnc(Nc3ccc(Br)cc3)c2c1CC, Cc1c(C(=O)NCCCN2CCN(C)CC2)cn2ncnc(C3C(=O)Nc4ccccc43)c12 (centres undefined), Cc1c(OCCn2cncn2)cn2ncnc(C3C(=O)Nc4ccccc43)c12 (centres undefined), Cc1ccc(Nc2ncnn3cc(C(=O)N4CCN(C)CC4)c(C)c23)cc1O, CCOC(=O)c1cn2ncnc(Nc3ccc(OC)nc3)c2c1CC, CCOC(=O)c1cn2ncnc(Nc3ccc(C)c(O)c3)c2c1OCC, COC(=O)c1cn2ncnc(Nc3ccc4c(c3)C(=O)NC4=O)c2c1C, CCOC(=O)c1cn2ncnc(C3C(=O)Nc4ccccc43)c2c1C(=O)OCC (centres undefined), COC(=O)c1cn2ncnc(Nc3cc(CO)ccc3C)c2c1C, Cc1c(C(=O)OCc2ccccc2)cn2ncnc(C3C(=O)Nc4ccccc43)c12 (centres undefined), CCc1nc(C2C(=O)Nc3ccccc32)c2c(C)c(C(=O)NCCCN(C)C)cn2n1 (centres undefined), COc1c(C(=O)NCCCn2cncn2)cn2ncnc(C3C(=O)Nc4ccccc43)c12 (centres undefined), COC(=O)c1cn2ncnc(Cl)c2c1C, CCOC(=O)c1cn2ncnc(NCc3ccccc3Br)c2c1CC, Cc1ccc(Nc2ncnn3cc(OCCCn4nccn4)c(C)c23)cc1O, CCNC(=O)c1cn2ncnc(Nc3ccc4c(cnn4Cc4ccccc4)c3)c2c1CC, CCOC(=O)c1cn2ncnc(C3C(=O)Nc4ccccc43)c2c1CC (centres undefined), COC(=O)c1cn2ncnc(Nc3ccc(C)c(NS(C)(=O)=O)c3)c2c1C, COC(=O)c1cn2ncnc(C3C(=O)Nc4ccc(C(N)=O)cc43)c2c1C (centres undefined), Cc1c(C(=O)NCCCN2CCCC2)cn2ncnc(C3C(=O)Nc4ccccc43)c12 (centres undefined), CCc1c(C(=O)OC)cn2ncnc(Nc3ccc4c(cnn4Cc4ccccc4)c3)c12, Cc1nc(C2C(=O)Nc3ccccc32)c2c(C)c(C(N)=O)cn2n1 (centres undefined), COC(=O)c1cn2ncnc(Nc3ccc(C)c([N+](=O)[O-])c3)c2c1C, COC(=O)c1cn2ncnc(Nc3ccc4c(C)cc(=O)[nH]c4c3)c2c1C, CCc1c(C(=O)N(CCCn2ccnc2)c2ccccn2)cn2ncnc(Nc3ccc4c(cnn4Cc4ccccc4)c3)c12, Cc1c(C(N)=O)cn2ncnc(C3C(=O)Nc4ccccc43)c12 (centres undefined), COC(=O)c1cn2ncnc(N3CC(=O)Nc4ccccc43)c2c1C, Cc1ccc(Nc2ncnn3cccc23)cc1O, Cc1c(C(=O)NCCCn2nccn2)cn2ncnc(C3C(=O)Nc4ccccc43)c12 (centres undefined), COC(=O)c1cn2ncnc(Nc3ccccc3S(N)(=O)=O)c2c1C, COc1c(C(=O)NCCN2CCCC2)cn2ncnc(Nc3ccc(Br)cc3F)c12, Cc1ccc(Nc2ncnn3ccc(C)c23)c(O)c1, CCc1c(C(=O)NCCN2CCCC2)cn2nc(C)nc(Nc3ccc(OC)nc3)c12, COC(=O)c1cn2ncnc(-c3c(O)[nH]c4cc(Br)ccc34)c2c1C, COC(=O)c1cn2ncnc(Nc3ccc(C)c(F)c3)c2c1C
